# From patent US20070299043A1, “Anti-scarring drug combinations and use thereof” (priority 2005, published 2007)
# Columns and labels:
# endo-exonuclease = conditions: PCT Publication No. WO 01/35935; cited from earlier work
# [1] = target: protein tyrosine phosphatase 1B (PTP1B) (Homo sapiens, UniProt P18031); conditions: cited from earlier work
# [2] = test system: phosphatases of regenerating liver (PRL); conditions: cited from earlier work
# [3] = test system: Candida albicans, Trichophyton spp., Epidermophyton spp., and Aspergillus spp.; conditions: cited from earlier work
# [4] = test system: Candida spp., Aspergillus spp., Sporothrix schenckii, Penicillium marneffei, Malassezia furfur, Cryptococcus neoformans, Trichosporon spp. and …; conditions: against most of the listed species; cited from earlier work
# [5] = test system: ACL injured guinea pig knees (osteoarthritis); assay: Inhibition of cartilage damage in the ACL injured Hartley guinea pig model of osteoarthritis; format: in vivo, Hartley guinea pigs; conditions: hyaluronic acid formulation; low dose (dose 1) and medium dose (dose 2); 5 weekly intra-articular injections; ten weeks after injury
# Excerpt: The skin on the right knee was sterilized. A 20G needle was introduced in the knee joint using a medial approach and the anterior cruciate ligament was cut with the sharp end of the needle.
# Two weeks after the initial procedure, the animals were anesthetized with isoflurane (5% induction −2% maintenance) and weighed. […] The skin of the injured knee was sterilised. […] Injections were repeated weekly for a total of 5 injections. Sample size was N=12 for each formulation. Two doses of paclitaxel and control formulation were tested.
# A final knee measurement was taken. The skin over the knee area was removed without damaging subcutaneous tissues. The knee joints were then harvested en bloc and placed into a formaldehyde (37%)/acetic acid solution (5:1 ratio) for fixation. Samples were sent to an independent laboratory for the conduct of histological preparation of joints and assessment by a pathologist for signs of cartilage damage.
# Briefly knee sections were made to examine cartilage and slides were stained with H&E stain. […] Bar graphs were constructed from each group and compared.
# AP-1 [6] = assay: IL-1 induced AP-1 DNA binding activity, gel mobility shift assay with chondrocyte extracts; format: cell-based; conditions: chondrocytes pretreated with paclitaxel 10^−7 to 10^−5 M for 24 hours
# Procedure: Binding activity was assayed with a radiolabeled human AP-1 sequence probe and gel mobility shift assay. Extracts from chondrocytes untreated or treated with various amounts of paclitaxel (10^−7to 10^−5 M) followed by IL-1β (20 ng/ml) were incubated with excess probe on ice for 30 minutes, followed by non-denaturing gel electrophoresis. The “com” lane contains excess unlabeled AP-1 oligonucleotide. The results shown are representative of three independent experiments.
# cartilage = assay: Hartley guinea pig knees with ACL damage, joint and cartilage score (FIG. 7, 8); format: in vivo
# [7] = test system: knee joint (synovial cavity); assay: Maximum tolerated dose (MTD) of a drug after intra-articular injection; conditions: for MTD (dose for which knee inflammation was not observed): 0.1 mL intra-articular
# Procedure: Male Hartley guinea pigs, at least 6 weeks old, were anaesthetized using 5% isoflurane in an enclosed chamber. The animals were weighed and then transferred to the surgical table where anesthesia was maintained by nose cone with 2% isoflurane. The knee area on both legs was shaved and knee width at the head of the femur was measured on both knees. The skin on the right knee was sterilized. A 25G needle was introduced into the synovial cavity using a medial approach and 0.1 mL of the test formulation was injected. Three or seven days after the injection, the animals were sacrificed by cardiac injection of 0.7 mL Euthanyl under deep anesthesia (5% isoflurane). Sample size was N=3 for each formulation.
# Knee function was assessed before sacrifice by recording changes in walking behavior and signs of tenderness. The animal was weighed immediately after sacrifice. The width of both knees at the head of the femur was then measured with calipers. The knee joint was dissected open by transecting the quadriceps tendon, cutting through the lateral and medial articular capsule and flipping the patella over the tibia. Knee inflammation was assessed by recording signs of swelling, vascularization, fluid accumulation and change in color in subcutaneous tissue as well as inner joint structures. Photographs were taken to document findings. All data was recorded by observers blinded to the treatment groups.
# [8] = test system: Chick Chorioallantoic Membrane (CAM); assay: Chick chorioallantoic membrane (CAM) angiogenesis assay; format: in vivo; conditions: for Inhibition/n: 48 hours exposure
# Procedure: Fertilized, domestic chick embryos were incubated for 3 days prior to shell-less culturing. In this procedure, the egg contents were emptied by removing the shell located around the air space. The interior shell membrane was then severed and the opposite end of the shell was perforated to allow the contents of the egg to gently slide out from the blunted end. The egg contents were emptied into round-bottom sterilized glass bowls and covered with petri dish covers. These were then placed into an incubator at 90% relative humidity and 3% CO2 and incubated for 3 days.
# Paclitaxel (Sigma, St. Louis, […].) was mixed at concentrations of 0.25, 0.5, 1, 5, 10, 30 μg per 10 ul aliquot of 0.5% aqueous methylcellulose. […] Ten microliter aliquots of this solution were dried on parafilm for 1 hour forming disks 2 mm in diameter. The dried disks containing paclitaxel were then carefully placed at the growing edge of each CAM at day 6 of incubation. Controls were obtained by placing paclitaxel-free methylcellulose disks on the CAMs over the same time course. After a 2 day exposure (day 8 of incubation) the vasculature was examined with the aid of a stereomicroscope. Liposyn II, a white opaque solution, was injected into the CAM to increase the visibility of the vascular details. The vasculature of unstained, living embryos were imaged using a Zeiss stereomicroscope which was interfaced with a video camera (Dage-MTI Inc., Michigan City, Ind.). […] Image negatives were then made on a graphics recorder (Model 3000; Matrix Instruments, Orangeburg, N.Y.).
# The membranes of the 8 day-old shell-less embryo were flooded with 2% glutaraldehyde in 0.1 M sodium cacodylate buffer; additional fixative was injected under the CAM. After 10 minutes in situ, the CAM was removed and placed into fresh fixative for 2 hours at room temperature. The tissue was then washed overnight in cacodylate buffer containing 6% sucrose. The areas of interest were postfixed in 1% osmium tetroxide for 1.5 hours at 4° C. The tissues were then dehydrated in a graded series of ethanols, solvent exchanged with propylene oxide, and embedded in Spurr resin. Thin sections were cut with a diamond knife, placed on copper grids, stained, and examined in a Joel 1200EX electron microscope. Similarly, […] sections were cut and stained with […] for light microscopy.
# At day 11 of development, chick embryos were used for the corrosion casting technique. Mercox resin (Ted Pella, Inc., Redding, Calif.) was injected into the CAM vasculature using a 30-gauge hypodermic needle. […] After injection, the plastic was allowed to sit in situ for an hour at room temperature and then overnight in an oven at 65° C. The CAM was then placed in 50% aqueous solution of sodium hydroxide to digest all organic components. The plastic casts were washed extensively in distilled water, air-dried, coated with gold/palladium, and viewed with the Philips 501B scanning electron microscope.
# After 48 hours exposure to paclitaxel at concentrations of 0.25, 0.5, 1, 5, 10, or 30 μg, each CAM was examined under living conditions with a stereomicroscope equipped with a video/computer interface in order to evaluate the effects on angiogenesis. This imaging setup was used at a magnification of 160× which permitted the direct visualization of blood cells within the capillaries; thereby blood flow in areas of interest may be easily assessed and recorded. For this study, the inhibition of angiogenesis was defined as an area of the CAM (measuring 2-6 mm in diameter) lacking a capillary network and vascular blood flow. Throughout the experiments, avascular zones were assessed on a 4 point avascular gradient (see the table below). This scale represents the degree of overall inhibition with maximal inhibition represented as a 3 on the avascular gradient scale. Paclitaxel was very consistent and induced a maximal avascular zone (6 mm in diameter or a 3 on the avascular gradient scale) within 48 hours depending on its concentration. […]
# MMP-1 (collagenase-1) = assay: IL-1 induced MMP-1 (collagenase) mRNA expression in chondrocytes, Northern blot; format: cell-based
# Procedure: (§1) Cells were treated with paclitaxel at various concentrations (10^−7 to 10^−5 M) for 24 hours, then treated with IL-1β (20 ng/ml) for additional 18 hours in the presence of paclitaxel. Total RNA was isolated, and the MMP-1 mRNA levels were determined by Northern blot analysis. The blots were subsequently stripped and reprobed with ^32P-radiolabeled rat GAPDH cDNA, which was used as a housekeeping gene. […] Quantitation of collagenase-1 and stromelysin-expression mRNA levels were conducted. The MMP-1 and MMP-3 expression levels were normalized with GAPDH.
# [9] = test system: collagenase and stromelysin; assay: IL-1 induced collagenase and stromelysin RNA levels in chondrocytes (FIG. 4, 5); format: cell-based; conditions: pretreatment
# AP-1 [10] = assay: IL-1 stimulated AP-1 transcriptional activity (AP-1 driven CAT reporter gene) in transfected chondrocytes; format: cell-based; conditions: paclitaxel 10^−7 to 10^−5 M, concentration dependent; IL-1 50 ng/ml, 24 hours
# Procedure: Chondrocytes were transfected with constructs containing an AP-1 driven CAT reporter gene, and stimulated with IL-1, IL-1 (50 ng/ml) was added and incubated for 24 hours in the absence and presence of paclitaxel at various concentrations. […] The data noted with an asterisk (*) have significance compared with IL-1-induced CAT activity according to a t-test, P<0.05. The results shown are representative of three independent experiments.
# MMP-3 (stromelysin) = assay: IL-1 induced MMP-3 (stromelysin) mRNA expression in chondrocytes, Northern blot; format: cell-based
# Procedure: as §1
# AP-1 [11] = assay: IL-1 induced AP-1 binding activity in chondrocyte lysates (FIG. 3); format: cell-based; conditions: lysates from chondrocytes pretreated with paclitaxel
# [12] = in vivo; cited from earlier work
# [13] = in vivo; cited from earlier work; remark: listed apart in the source
# [14] = 10^−5 M paclitaxel, pretreatment 24 hours
# protein tyrosine phosphatase 1B (PTP1B), sequence (P18031 whole entry): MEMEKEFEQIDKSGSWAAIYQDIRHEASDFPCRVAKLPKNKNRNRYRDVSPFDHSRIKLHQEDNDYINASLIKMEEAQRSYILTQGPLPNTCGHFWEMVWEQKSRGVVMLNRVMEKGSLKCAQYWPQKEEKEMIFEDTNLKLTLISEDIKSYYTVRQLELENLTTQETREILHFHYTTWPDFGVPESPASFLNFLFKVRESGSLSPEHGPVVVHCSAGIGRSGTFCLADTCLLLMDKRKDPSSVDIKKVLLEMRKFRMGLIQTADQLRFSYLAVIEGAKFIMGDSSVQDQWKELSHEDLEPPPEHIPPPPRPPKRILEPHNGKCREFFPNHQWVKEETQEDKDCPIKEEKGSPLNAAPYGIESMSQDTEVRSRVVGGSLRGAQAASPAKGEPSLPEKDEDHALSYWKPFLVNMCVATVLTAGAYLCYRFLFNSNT
structure (smiles),measurement,setting,value
N=C(N)c1ccc(OCCCCCOc2ccc(C(=N)N)cc2)cc1 [pentamidine],inhibition of the activity of endo-exonuclease,endo-exonuclease,inhibit the activity
same,inhibition of PTP1B,[1],effective inhibitor
same,inhibition of oncogenic phosphatases of regenerating liver,[2],potent inhibitor
"Cc1cc(C2CCCCC2)n(O)c(=O)c1 [Ciclopirox, ciclopirox]",antifungal activity,[3],fungistatic and fungicidal
"CN(C/C=C/C#CC(C)(C)C)Cc1cccc2ccccc12.Cl [terbinafine, terbinafine hydrochloride]",in vitro antifungal activity,[4],has activity
CC(=O)O[C@H]1C(=O)[C@@]2(C)[C@H]([C@H](OC(=O)c3ccccc3)[C@]3(O)C[C@H](OC(=O)[C@H](O)[C@@H](NC(=O)c4ccccc4)c4ccccc4)C(C)=C1C3(C)C)[C@]1(OC(C)=O)CO[C@@H]1C[C@@H]2O [paclitaxel],cartilage damage (pathologist score),[5],statistical reduction in cartilage damage relative to control
same,IL-1 induced AP-1 binding to oligonucleotides,AP-1 [6],IL-1 induced binding activity decreased
same,"average rank of joint scores, dose response trend","cartilage; Hartley guinea pig knees with ACL damage, p<0.02",statistically significant
same,cartilage in knee cross section,cartilage; dose 1 (low dose),fraying of cartilage
same,cartilage in knee cross section,cartilage; dose 2 (medium dose),minor defects to cartilage
same,MTD (dose for which knee inflammation was not observed),"[7]; co-solvent formulation, 3 day evaluation",1.5 mg/mL
same,MTD (dose for which knee inflammation was not observed),"[7]; triblock gel formulation according to Example 34, evaluation at 7 days",0.075 mg/mL
same,tolerated doses,"[7]; triblock gel formulation, evaluation after three days",up to 0.15 mg/ml
same,Inhibition/n,[8]; 0.25 ug in methylcellulose (10 ul),2/11
same,Inhibition/n,[8]; 0.5 ug in methylcellulose (10 ul),6/11
same,Inhibition/n,[8]; 1 ug in methylcellulose (10 ul),6/15
same,Inhibition/n,[8]; 5 ug in methylcellulose (10 ul),20/27
same,Inhibition/n,[8]; 10 ug in methylcellulose (10 ul),16/21
same,Inhibition/n,[8]; 30 ug in methylcellulose (10 ul),31/31
same,maximal avascular zone on the avascular gradient scale,[8]; within 48 hours depending on concentration,3
same,IL-1 induced collagenase mRNA levels,MMP-1 (collagenase-1); [14],complete inhibition
same,concentration capable of inhibiting collagenase expression in vitro,MMP-1 (collagenase-1); chondrocytes,10^−6 M
same,IL-1 induction of collagenase and stromelysin RNA levels,[9],can be inhibited
same,IL-1 induced AP-1 reporter gene CAT activity,AP-1 [10],reduced IL-1 induced AP-1 reporter gene CAT activity
same,IL-1 induced stromelysin mRNA levels,MMP-3 (stromelysin); [14],complete inhibition
same,concentration capable of inhibiting stromelysin expression in vitro,MMP-3 (stromelysin); chondrocytes,10^−6 M
same,IL-1 induced binding activity,AP-1 [11],decreased
"CN(C)/N=N/c1[nH]cnc1C(N)=O [Dacarbazine, dacarbazine]",absorption from the GI tract,[12],poorly absorbed
"O=C(Nc1ccc([N+](=O)[O-])cc1Cl)c1cc(Cl)ccc1O [Niclosamide, niclosamide]",toxicity in mammals,[13],very low toxicity
